# System: TNF-α
# Experiment: Cell-Based TNFα Inhibition Assay (PBMCs induced with LPS, Meso Scale)
# Conditions: PBMC, PBMCs pretreated 1 hr, induced with LPS 100 ng/mL 18-24 hrs, supernatant TNF-α; for inhibition at 0.1 µM: 0.1 μM compound; for inhibition at 1 µM: 1 μM compound
# Procedure: Cell-Based TNFα Inhibition Assay
# PBMCs induced with LPS (lipopolysaccharide): Frozen […] blood mononuclear cells (PBMCs) are purchased from AllCells. Cells are quick thawed, washed once with Roswell Park Memorial Institute medium (RPMI)-1640/10% FBS/1% Penicillin/1% Streptomycin and plated in 96 well plates at 200,000 cells per well. Cells are pretreated with DMSO only or the indicated compounds for 1 hr and then induced with […] for 18-24 hrs. The supernatant is analyzed for TNF-α using Meso Scale assay according to manufacturer's protocol. The negative control wells are treated with DMSO. Compound activity is measured as a percentage of the DMSO control.
SMILES,inhibition at 0.1 µM [%],inhibition at 1 µM [%]
"CCOc1cc([C@@H](CS(C)(=O)=O)N2Cc3c(NC(=O)C(F)(F)F)csc3C2=O)ccc1OC [Compound 30, (S)—N-(5-(1-(3-ethoxy-4-methoxyphenyl)-2-(methylsulfonyl)ethyl)-6-oxo-5,6-dihydro-4H-thieno[2,3-c]pyrrol-3-yl)-2,2,2-trifluoroacetamide]",< 20,< 20
"CCOc1cc([C@@H](CS(C)(=O)=O)N2Cc3c(NC(=O)COC)csc3C2=O)ccc1OC [Compound 31, (S)—N-(5-(1-(3-ethoxy-4-methoxyphenyl)-2-(methylsulfonyl)ethyl)-6-oxo-5,6-dihydro-4H-thieno[2,3-c]pyrrol-3-yl)-2-methoxyacetamide]",< 20,< 20
"CCOc1cc([C@@H](CS(C)(=O)=O)N2Cc3c(NC(=O)C4CC4)csc3C2=O)ccc1OC [Compound 32, (S)—N-(5-(1-(3-ethoxy-4-methoxyphenyl)-2-(methylsulfonyl)ethyl)-6-oxo-5,6-dihydro-4H-thieno[2,3-c]pyrrol-3-yl)cyclopropanecarboxamide]",< 20,20 to 40

# Source: patent publication US11236105B2, “Bicyclic compounds and methods of use” (BioTheryX, Inc., priority 2017, dated 2022)
